Where “and” joins values, the source holds several entries; their conditions need not be identical. Identical values can stand only once.
System: left anterior descending coronary artery (LAD) occlusion, Sprague-Dawley rats
Assay: Ventricular arrhythmias (Lown classification, VPB-Score) during final permanent LAD occlusion
Type: in vivo, rat

SMILES	rats with class 0 arrhythmias (Lown) (rat, in vivo) [%]	rats with class IIIa arrhythmias (Lown) (rat, in vivo) [%]	rats with class IVb arrhythmias (Lown) (rat, in vivo)	rats with class IIIa arrhythmias (Lown) (5 DAYS RIP, during FPO) [%]	rats with class IVb arrhythmias (Lown) (5 DAYS RIP, during FPO) [%]
O=[N+]([O-])OCC(CO[N+](=O)[O-])O[N+](=O)[O-] [NTG, nitroglycerin]	57.1	14.3	85.7% and 42.9%		
CC(=O)Oc1ccccc1C(=O)O [ASA, acetyl salicylic acid]				16.7	83.3
